How the values were obtained:
Assay type in all cases: cell-based
T-47D cells = assay: Inhibition of cell proliferation in T-47D cells (CCK-8, 6 days); details: 6 days of treatment
Summary of the method: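 T-47D cells at 3,000 cells/well in RPMI 1640 with 10% FBS were exposed to a concentration series of PROTAC compounds for 6 days at 37 °C, 5% CO2. Viability was read by CCK-8, and IC50 values were derived for proliferation inhibition.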

MCF-7 cells = assay: Inhibition of cell proliferation of MCF-7 cells (CCK-8, 9 days)
Summary of the method: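 MCF-7 cells seeded at 800 cells/well in DMEM with 10% FBS, exposed to a range of compound concentrations for 9 days at 37°C, 5% CO2. Viability read by CCK-8; IC50 derived for proliferation inhibition.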

ERα [1] = molecular target: T1, ERα (Homo sapiens, UniProt P03372); assay: Degradation of ERα in MCF-7 cells (immunoblotting, 4 h)
T1 sequence (P03372 1-595): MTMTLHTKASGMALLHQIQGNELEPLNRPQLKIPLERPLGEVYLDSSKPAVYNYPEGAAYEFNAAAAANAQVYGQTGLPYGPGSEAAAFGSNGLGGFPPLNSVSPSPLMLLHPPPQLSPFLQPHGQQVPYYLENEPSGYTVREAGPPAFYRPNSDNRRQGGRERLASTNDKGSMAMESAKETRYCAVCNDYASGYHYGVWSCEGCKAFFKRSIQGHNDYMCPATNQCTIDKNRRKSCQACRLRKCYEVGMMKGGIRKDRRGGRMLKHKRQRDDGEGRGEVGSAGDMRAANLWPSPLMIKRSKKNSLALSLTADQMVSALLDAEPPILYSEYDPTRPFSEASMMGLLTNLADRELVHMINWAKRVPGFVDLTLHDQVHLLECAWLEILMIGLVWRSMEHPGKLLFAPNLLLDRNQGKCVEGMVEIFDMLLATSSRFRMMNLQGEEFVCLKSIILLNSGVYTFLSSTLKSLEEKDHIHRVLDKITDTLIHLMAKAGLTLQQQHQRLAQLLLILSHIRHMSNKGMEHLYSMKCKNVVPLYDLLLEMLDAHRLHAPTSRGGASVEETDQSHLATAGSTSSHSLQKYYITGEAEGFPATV
Summary of the method: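 MCF-7 cells treated 4 h at 37°C with compounds at 0.15-1000nM final. ERα in lysates measured by immunoblot, with band grayscale normalized to an internal reference protein. Degradation rate calculated against DMSO-treated control.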

ERα [2] = molecular target: T1, ERα; assay: Degradation of ERα in T-47D cells (immunoblotting, 4 h); design: host or cells: T-47D
Summary of the method: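 T-47D cells were treated with compound (final 0.15-1000 nM, DMSO) for 4 h at 37°C, 5% CO2. Cells were lysed in RIPA buffer with protease inhibitor, and ERα protein in the cleared lysate was measured by immunoblotting.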

[3] = treated for 9 days, CCK-8 kit (Table 6)

Row | Compound | IC50 (T-47D cells; Table 3) [nM] | IC50 (MCF-7 cells; [3]) [nM] | Degradation rate (%) of ERα in MCF-7 cells (ERα [1]; 1nM compound) [%] | Degradation rate (%) of ERα in MCF-7 cells (ERα [1]; 10nM compound) [%] | Degradation rate (%) of ERα in T-47D cells (ERα [2]; 1nM compound) [%] | Degradation rate (%) of ERα in T-47D cells (ERα [2]; 10nM compound) [%] | IC50 (T-47D cells; Table 2) [nM] | IC50 (MCF-7 cells; 9 days of treatment, CCK-8, Table 5) [nM]
1 | O=C1CCC(N2Cc3c(ccc4c3OCC43CCN(C4CCN(C5CC6(CCN(c7ccc([C@@H]8c9ccc(O)cc9CC[C@@H]8c8ccccc8)cc7)CC6)C5)[C@@H](C(=O)NC5CC5)C4)CC3)C2=O)C(=O)N1 (stereo partly shown) [K27] | 1.05 | 33.1 | 71 | 86 | 69 | 88 |  | 
2 | O=C1CCC(N2C(=O)c3cc4c(cc3C2=O)OC2(CC4)CN(CC3CC4(CCN(c5ccc([C@@H]6c7ccc(O)cc7CC[C@@H]6c6ccccc6)cc5)CC4)C3)C2)C(=O)N1 (stereo partly shown) [B11] | 55 | 4610 | -40 | -16 | -34 | -38 |  | 
3 | O=C1CCC(N2C(=O)c3cc4c(cc3C2=O)OC2(CC4)CN(CC3CCC4(CC3)CCN(c3ccc([C@@H]5c6ccc(O)cc6CC[C@@H]5c5ccccc5)cc3)CC4)C2)C(=O)N1 (stereo partly shown) [A41] | 23 | 33 | -9 | -18 | 8 | 17 |  | 
4 | O=C1CCC(N2Cc3cc4c(cc3C2=O)OC2(CC4)CN(C3CCC4(CC3)CN(c3ccc([C@@H]5c6ccc(O)cc6CC[C@@H]5c5ccccc5)cc3)C4)C2)C(=O)N1 (stereo partly shown) [B9] | 7 | 86 | 0 | 17 | 16 | 45 |  | 
5 | C[C@@H]1Cc2c(ccc3[nH]ncc23)[C@@H](c2c(F)cc(N3CCC4(CCN(C(=O)CN5CCC6(CC5)COc5c6ccc6c5CN(C5CCC(=O)NC5=O)C6=O)CC4)CC3)cc2F)N1CC(F)F (stereo partly shown) [C13] | 0.61 | 3.24 | 41 | 62 | 46 | 70 |  | 
6 | O=C1CCC(N2Cc3c(ccc4c3OCC43CCN(C4CCN(C(=O)C5CCN(c6ccc([C@@H]7c8ccc(O)cc8CC[C@@H]7c7ccccc7)cc6)CC5)[C@H](C(=O)N5CCC5)C4)CC3)C2=O)C(=O)N1 (stereo partly shown) [H45] | 1.47 | 16.2 | 25 | 61 | 58 | 78 |  | 
7 | O=C1CCC(N2C(=O)c3cc4c(cc3C2=O)OC2(CC4)CN(C3CCC4(CC3)CN(c3ccc(C5c6ccc(O)cc6CCC5c5ccccc5)cc3)C4)C2)C(=O)N1 (stereo not shown) [B7] |  | > 100 |  | -6 |  | 19 | 1000 | 
8 | C[C@@H]1Cc2c(ccc3[nH]ncc23)C(c2ccc(N3CCC(N4CC[C@@H](N5CCC6(CC5)COc5c6ccc6c5CN(C5CCC(=O)NC5=O)C6=O)[C@@H](F)C4)CC3)cn2)N1CC(F)(F)F (stereo partly shown) [H57] | 26.9 | 7370 | 38 | 60 | 38 | 71 |  | 
9 | CCN(CC(=O)N1CCC2(CC1)COc1c2ccc2c1CN(C1CCC(=O)NC1=O)C2=O)CC1CCN(c2ccc([C@@H]3c4ccc(O)cc4CC[C@@H]3c3ccccc3)cc2)CC1 (stereo partly shown) [J12] | 1.1 | 1940 | 60 | 53 | 68 | 86 |  | 
10 | O=C1CCC(N2Cc3cc4c(cc3C2=O)OC2(CC4)CN(C3CCC4(CC3)CN(c3ccc(C5c6ccc(O)cc6CCC5c5ccccc5)cc3)C4)C2)C(=O)N1 (stereo not shown) [B8] | 31 | 6.57 |  | 16 |  | 33 | 2.9 | 90
11 | C[C@@H]1Cc2c(ccc3[nH]ncc23)[C@@H](c2c(F)cc(N3CCC4(CCN(C(=O)CN5CCC6(CC5)COc5c6ccc6c5CN(C5CCC(=O)NC5=O)C6=O)C4)CC3)cc2F)N1CC(F)F (stereo partly shown) [C14] | 0.96 | 15 | 41 | 55 | 50 | 66 |  | 
12 | O=C1CCC(N2Cc3ccc4c(c3C2=O)OC2(CC4)CCN(CC3CCN(c4ccc([C@@H]5c6ccc(O)cc6CC[C@@H]5c5ccccc5)cc4)CC3)CC2)C(=O)N1 (stereo partly shown) [H7] | 10.4 | 330 | 12 | -2 | -11 | -15 |  | 
13 | O=C1CCC(N2Cc3cc4c(cc3C2=O)OCC42CCN(C3CCC4(CC3)CN(c3ccc([C@@H]5c6ccc(O)cc6CC[C@@H]5c5ccccc5)cc3)C4)CC2)C(=O)N1 (stereo partly shown) [K17] | 1.54 | 70 | 14 | 35 | 23 | 66 |  | 
14 | C[C@@H]1C[C@H](N2CCC3(CC2)COc2c3ccc3c2CN(C2CCC(=O)NC2=O)C3=O)CCN1C1CC2(CCN(c3ccc([C@@H]4c5ccc(O)cc5CC[C@@H]4c4ccccc4)cc3)CC2)C1 (stereo partly shown) [H30] | 5.78 | 0.115 | -1 | 62 | 37 | 74 |  | 
15 | O=C1CCC(N2Cc3ccc4c(c3C2=O)OCC2(CCN(C3CCC5(CC3)CCN(c3ccc([C@@H]6c7ccc(O)cc7CC[C@@H]6c6ccccc6)cc3)CC5)CC2)C4)C(=O)N1 (stereo partly shown) [L3] | 5 | 130 | 23 | 44 | 25 | 54 |  | 
16 | C[C@@H]1Cc2c(ccc3[nH]ncc23)[C@@H](c2c(F)cc(N3CCC4(CCN(CC(=O)N5CCC6(CC5)COc5c6ccc6c5CN(C5CCC(=O)NC5=O)C6=O)CC4)CC3)cc2F)N1CC(F)F (stereo partly shown) [C10] | 0.5 | 54.8 | 53 | 65 | 65 | 80 |  | 
17 | C[C@@H]1Cc2c([nH]c3ccccc23)[C@@H](c2c(F)cc(N3CCC4(CCC(N5CCC6(CC5)COc5c6ccc6c5CN(C5CCC(=O)NC5=O)C6=O)CC4)CC3)cc2F)N1CC(F)F (stereo partly shown) [A103] | 2.99 | 13.6 | 37 | 70 | 29 | 68 |  | 

From patent EP4656642A1, “ESTROGEN RECEPTOR PROTEOLYSIS TARGETING CHIMERA COMPOUND AND USE THEREOF” (GAN & LEE PHARM CO., LTD, priority 2023, dated 2024)
